The text below walks through data of patent US6790621B2 (Washington State University Research Foundation, priority 2001, dated 2004).

Data set [1] concerns Collies. The settings on record: Collies vs Beagles, one study; cited from earlier work.
The subject of data set [2] is Collies. Nature of the data set: Ivermectin sensitivity (signs of neurotoxicosis) in Collies by mdr1 genotype. The class given is in vivo, dogs. The settings on record: oral 120 μg/kg. As to the method: Blood samples (8 ml) were obtained by jugular venipuncture from each of 13 clinically healthy Collies (Wil-O-Lane Kennels, Allegan, Mich.). […] Each dog was identified by an ear tattoo and housed in a run measuring 4×8 feet with metal walls and a raised, coated, metal screen floor. Facilities exceeded the minimal requirement specified by USDA guidelines.
We took advantage of a well-defined population of ivermectin-sensitive and non-sensitive Collies (Paul et al., Amer. J. Vet. Res. 61:482-483, 2000: Fassler et al., J. Am. Vet. Med. Assoc. 199:457-460, 1991). […] Clinical signs of neurotoxicity that were evaluated include apparent depression, ataxia, mydriasis, salivation, or drooling (Paul et al., Amer. J. Vet. Res. 61:482-483, 2000). Semi-quantitative reverse transcriptase PCR analysis was conducted on RNA isolated from ivermectin-sensitive and non-sensitive Collies to determine if mdr1 expression is lower in sensitive Collies than in non-sensitive Collies. Amplification of a 229-bp product of the canine glyceraldehyde 3-phosphate dehydrogenase (GAPDH) gene was used as an internal standard to control for variability in reverse transcriptase and PCR reactions.

Data set [3] concerns Collies. Nature of the data set: Loperamide neurotoxicity in Collies. Type of data set: in vivo, dogs. To be noted: one Collie of the study, homozygous for the mutant allele, treated with an appropriate dose as a puppy. The source says: Determination of the genotype of Collies is important clinically for several reasons. […] The dog tested homozygous for the mutant allele.

In data set [4] the test system is Collies. The settings on record: cited from earlier work.

Consider Ivermectin, for which, in data set [1], the “fraction of the lethal dose of ivermectin for Beagles that was lethal for Collies” value is recorded as 1/200. Also, the figures for the “ivermectin sensitivity (neurotoxicity)” value in data set [2] (Collies heterozygous (normal/mutant) or homozygous normal) and in data set [2] (Collies homozygous for the mdr1 deletion (mutant/mutant)) were “not sensitive to ivermectin neurotoxicity” and “exhibit ivermectin sensitivity”, respectively.

`CN(C)C(=O)C(CCN1CCC(O)(c2ccc(Cl)cc2)CC1)(c1ccccc1)c1ccccc1` [loperamide, Loperamide]: in data set [3], the neurologic toxicity entry is “severe (nearly fatal) neurologic toxicity”. Moreover, the “concentration in brain tissue” value in data set [4] (affected Collies) is listed as “high concentrations in brain tissue”. Besides, in data set [4] (doses routinely used in other breeds), the “neurotoxicity in Collies” value is listed as “cause neurotoxicity”.
